The results in this text go back to patent US11180767B2, “Protease deficient filamentous fungal cells and methods of use thereof” (GLYKOS FINLAND OY, priority 2012, dated 2021).

Non-standard residues stand in square brackets, D forms with d. Residues, ends and D or L forms follow the SMILES beside them. *: point of attachment. Sta = CC(C)C[C@H](N)[C@@H](O)CC(=O)O; Isovaleryl = CC(C)CC(=O)*

The subject of one assay is aspartic proteases. In words: IgG degradation by pepstatin A affinity purified aspartic proteases. Format: biochemical, Trichoderma reesei. To be noted: 10 μM pepstatin A; pH 5.5, 37°C, 20 hours. As to the method: The T. reesei fed batch fermentation supernatant (15 ml) was used to batch bind proteases to the resin in 35 ml of buffer containing 50 mM sodium acetate, 0.2 M NaCl, pH 3.0. The column was washed with the same binding buffer and bound protein was removed with elution buffer (50 mM Tris-HCL, 1 M NaCl, pH 8.5). Fractions of 0.5 ml were collected. In total 42 μg of protease was purified. The peak fraction contained 0.04 μg/μl protein. 30 μl of each fraction was mixed with 6 μl of Laemmli sample buffer containing β-mercaptoethanol. The samples were heated at 95° C. for 5 minutes before being loaded into a 4-15% PAGE gel (BioRad mini-protean TGX precast gel) along with a broad range prestained molecular weight marker (BioRad). The gel was run in SDS PAGE running buffer for 30 minutes at 100 V, and then stained with GelCode (Thermo Scientific) blue stain.
Protein (0.8 μg) from the peak fraction (F3) was then incubated with IgG (50 μg ml) in sodium citrate buffer (50 mM, pH 5.5) at 37° C. for 20 hours (FIG. 2). The protein was incubated either in the presence or absence of 10 μM pepstatin A. The antibody mixture was combined with Laemmli sample buffer and heated at 95° C. for 5 minutes. These samples were then loaded into a 4-15% PAGE gel (BioRad mini-protean TGX precast gel) along with a broad range prestained molecular weight marker (BioRad). […]

The test system of assay [1] is SIP purified proteases (PEP2, PEP3, PEP4, PEP5, GAP1, SLP2). In words: Protease activity of SIP purified fractions against casein with inhibitors (EnzChek). Format: biochemical, Trichoderma reesei. To be noted: pH 5.5. As to the method:
Protease activity was then tested against casein both in the presence and absence of protease inhibitors. Protease activity against casein was tested using the EnzChek protease assay kit (Molecular probes #E6638, green fluorescent casein substrate). The working stock solution was prepared by diluting the stock to 10 μg ml in 50 mM sodium citrate, pH 5.5. The purified protease fractions (10 μl) were diluted with […] of sodium citrate, pH 5.5. 100 μl of the diluted substrate was combined with the diluted protease fractions in a 96 well sample plate. The plate was then covered and kept at 37° C. for one to three hours. Fluorescence readings were taken at one, two, and three hours with a Varioskan fluorescent plate reader (Thermo Scientific) using 485 nm excitation and 530 nm emission.
The SIP inhibitor peptide, pepstatin A, LIP peptide, SBTI, and chymostatin were used as inhibitors. […] SIP, LIP, and pepstatin A were used at a concentration of 60 μM, and SBTI was used at a concentration of 200 μg/ml.

As for `CC(C)CC(=O)N[C@H](C(=O)N[C@H](C(=O)N[C@@H](CC(C)C)[C@@H](O)CC(=O)N[C@@H](C)C(=O)N[C@@H](CC(C)C)[C@@H](O)CC(=O)O)C(C)C)C(C)C` [pepstatin A] (Isovaleryl-VV[Sta]A[Sta]-OH), the “IgG degradation by aspartic proteases” value in the assay on aspartic proteases is recorded as “inhibited”. In addition, the proteases inhibited result in assay [1] (SIP, LIP, pepstatin A 60 μM, SBTI 200 μg/ml) is listed as “inhibited only aspartic proteases”. Further, in assay [1] (FIG. 11), the “inhibition of SIP purified protease activity against casein” value is “a large portion of the SIP protease activity was inhibited”.
